{
  "source": "the supplement of paper PMC10307832",
  "assay_in_all_cases": "relative viability (nuclei count vs DMSO), 5 days (fraction); higher = more cells survive",
  "key": {"[1]": {"compound": "C1=CC2=C(C=CC(=C2)C=C3C(=O)NC(=NCC4=CC=CS4)S3)N=C1 [RO-3306] + CCNC(=O)c1noc(-c2cc(C(C)C)c(O)cc2O)c1-c1ccc(CN2CCOCC2)cc1 [Luminespib] (partner 0.01 µM)", "procedure,_shortened": "(§1)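 Relative viability was taken as the ratio of nuclei in treated wells to nuclei in vehicle wells. Lung cancer cell lines in 1536-well plates received compounds by pin tool one day after seeding, either one drug alone or a fixed anchor-drug dose plus five library-drug doses (not always all listed) in √10 steps. Nuclei were counted on 4× images after 5 days of treatment, and values are medians of duplicate plates.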"}, "[2]": {"compound": "C1=CC2=C(C=CC(=C2)C=C3C(=O)NC(=NCC4=CC=CS4)S3)N=C1 [RO-3306] + Cc1nc(NC(=O)N2CCC[C@H]2C(N)=O)sc1-c1ccnc(C(C)(C)C(F)(F)F)c1 [Alpelisib] (partner 2 µM)", "procedure,_shortened": "as §1"}, "[3]": {"compound": "C1=CC2=C(C=CC(=C2)C=C3C(=O)NC(=NCC4=CC=CS4)S3)N=C1 [RO-3306] + Cc1nc(Nc2ncc(C(=O)Nc3c(C)cccc3Cl)s2)cc(N2CCN(CCO)CC2)n1 [Dasatinib] (partner 0.075 µM)", "procedure,_shortened": "as §1"}, "[4]": {"compound": "C1=CC2=C(C=CC(=C2)C=C3C(=O)NC(=NCC4=CC=CS4)S3)N=C1 [RO-3306] + CC1(C)CCC(c2ccc(Cl)cc2)=C(CN2CCN(c3ccc(C(=O)NS(=O)(=O)c4ccc(N[C@H](CCN5CCOCC5)CSc5ccccc5)c(S(=O)(=O)C(F)(F)F)c4)cc3)CC2)C1 [Navitoclax] (partner 0.5 µM)", "procedure,_shortened": "as §1"}},
  "data": [
    {"cell line": "UMC-11", "values": [
      {"measurement": "relative viability", "setting": "[1]; first compound 0.01 µM", "value": 0.955},
      {"measurement": "relative viability", "setting": "[1]; first compound 0.03162 µM", "value": 0.908},
      {"measurement": "relative viability", "setting": "[1]; first compound 0.1 µM", "value": 1.05},
      {"measurement": "relative viability", "setting": "[1]; first compound 0.3162 µM", "value": 1.08},
      {"measurement": "relative viability", "setting": "[1]; first compound 1 µM", "value": 1.06},
      {"measurement": "relative viability", "setting": "[2]; first compound 0.01 µM", "value": 1.03},
      {"measurement": "relative viability", "setting": "[2]; first compound 0.03162 µM", "value": 0.753},
      {"measurement": "relative viability", "setting": "[2]; first compound 0.1 µM", "value": 0.948},
      {"measurement": "relative viability", "setting": "[2]; first compound 0.3162 µM", "value": 1.18},
      {"measurement": "relative viability", "setting": "[2]; first compound 1 µM", "value": 1.12},
      {"measurement": "relative viability", "setting": "[3]; first compound 0.01 µM", "value": 0.553},
      {"measurement": "relative viability", "setting": "[3]; first compound 0.03162 µM", "value": 0.341},
      {"measurement": "relative viability", "setting": "[3]; first compound 0.1 µM", "value": 0.432},
      {"measurement": "relative viability", "setting": "[3]; first compound 0.3162 µM", "value": 0.546},
      {"measurement": "relative viability", "setting": "[3]; first compound 1 µM", "value": 0.453},
      {"measurement": "relative viability", "setting": "[4]; first compound 0.01 µM", "value": 0.325},
      {"measurement": "relative viability", "setting": "[4]; first compound 0.03162 µM", "value": 0.312},
      {"measurement": "relative viability", "setting": "[4]; first compound 0.1 µM", "value": 0.305},
      {"measurement": "relative viability", "setting": "[4]; first compound 0.3162 µM", "value": 0.321},
      {"measurement": "relative viability", "setting": "[4]; first compound 1 µM", "value": 0.319}
    ]}
  ]
}
